In brackets after ≈: the same amount, converted by molar mass.
These molecules were tested on M. catarrhalis A894 (assay: Minimal inhibitory concentration (MIC), microdilution method in cation-adjusted Mueller-Hinton Broth (CLSI M7-A7)). Conditions: Moraxella catarrhalis, strain A894.
Format: cell-based
Method: Minimal inhibitory concentrations (MICs; mg/1) were determined in cation-adjusted Mueller-Hinton Broth by a microdilution method following the description given in “Methods for Dilution Antimicrobial Susceptibility Tests for Bacteria that Grow Aerobically”, Approved standard, 7th ed., Clinical and Laboratory Standards Institute (CLSI) Document M7-A7, Wayne, Pa., USA, 2006.
`C[C@H]1[C@H](NCCC[C@H]2CN(c3ccc4c(c3)NC(=O)CS4)C(=O)O2)c2c(F)ccc3ccc(=O)n1c23` (relative stereo) [Example 184, (1R*,2S*)-9-fluoro-2-methyl-1-{3-[(S)-2-oxo-3-(3-oxo-3,4-dihydro-2H-benzo[1,4]thiazin-6-yl)-oxazolidin-5-yl]-propylamino}-1,2-dihydro-pyrrolo[3,2,1-ij]quinolin-4-one] gave an MIC of no more than 0.031 µg/mL. With `C[C@H]1[C@H](NCCC[C@@H]2CN(c3ccc4c(n3)NC(=O)CS4)C(=O)O2)c2c(F)ccc3ccc(=O)n1c23` (relative stereo) [Example 185, (1R*,2S*)-9-fluoro-2-methyl-1-{3-[(R)-2-oxo-3-(3-oxo-3,4-dihydro-2H-pyrido[3,2-b][1,4]thiazin-6-yl)-oxazolidin-5-yl]-propylamino}-1,2-dihydro-pyrrolo[3,2,1-ij]quinolin-4-one] the MIC was no more than 0.031 µg/mL. Work on `Cl.O=C1CSc2ccc(N3C[C@@H](CCCN[C@@H]4c5c(F)ccc6ccc(=O)n(c56)[C@H]4C(=O)O)OC3=O)cc2N1` (relative stereo) [Example 186, (1R*,2R*)-9-fluoro-4-oxo-1-{3-[(R)-2-oxo-3-(3-oxo-3,4-dihydro-2H-benzo[1,4]thiazin-6-yl)-oxazolidin-5-yl]-propylamino}-1,2-dihydro-4H-pyrrolo[3,2,1-ij]quinoline-2-carboxylic acid hydrochloride] yielded an MIC of 0.5 µg/mL. `NC[C@H]1[C@H](NCCC[C@@H]2CN(c3ccc4c(c3)NC(=O)CS4)C(=O)O2)c2c(F)ccc3ccc(=O)n1c23` (relative stereo) [Example 188, (1R*,2S*)-2-aminomethyl-9-fluoro-1-{3-[(R)-2-oxo-3-(3-oxo-3,4-dihydro-2H-benzo[1,4]thiazin-6-yl)-oxazolidin-5-yl]-propylamino}-1,2-dihydro-pyrrolo[3,2,1-ij]quinolin-4-one] gave an MIC of no more than 0.031 µg/mL. For `O=C1CSc2ccc(N3C[C@@H](CCNC[C@@H]4Cn5c(=O)ccc6nccc4c65)OC3=O)cc2N1` [Example 15, (4R)-4-({2-[(R)-2-oxo-3-(3-oxo-3,4-dihydro-2H-benzo[1,4]thiazin-6-yl)-oxazolidin-5-yl]-ethylamino}-methyl)-4,5-dihydro-pyrrolo[3,2,1-de][1,5]naphthyridin-7-one], the MIC was no more than 0.031 µg/mL. `O=C1CSc2ccc(N3C[C@@H](CCCN[C@H]4Cn5c(=O)ccc6nccc4c65)OC3=O)cc2N1` [Example 18, (4R)-4-{3-[(R)-2-oxo-3-(3-oxo-3,4-dihydro-2H-benzo[1,4]thiazin-6-yl)-oxazolidin-5-yl]-propylamino}-4,5-dihydro-pyrrolo[3,2,1-de][1,5]naphthyridin-7-one] showed an MIC of no more than 0.031 µg/mL. For `O=C1COc2ccc(N3C[C@@H](CCCN[C@H]4Cn5c(=O)ccc6nccc4c65)OC3=O)cc2N1` [Example 19, (4R)-4-{3-[(R)-2-oxo-3-(3-oxo-3,4-dihydro-2H-benzo[1,4]oxazin-6-yl)-oxazolidin-5-yl]-propylamino}-4,5-dihydro-pyrrolo[3,2,1-de][1,5]naphthyridin-7-one], the MIC was no more than 0.031 µg/mL. For `O=C1CSc2ccc(N3C[C@@H](CCCN[C@@H]4Cn5c(=O)ccc6nccc4c65)OC3=O)cc2N1` [Example 39, (S)-4-{3-[(R)-2-oxo-3-(3-oxo-3,4-dihydro-2H-benzo[1,4]thiazin-6-yl)-oxazolidin-5-yl]-propylamino}-4,5-dihydro-pyrrolo[3,2,1-de][1,5]naphthyridin-7-one], the MIC was no more than 0.031 µg/mL. Molecule `O=C1COc2ccc(N3C[C@@H](CCCN[C@@H]4Cn5c(=O)ccc6nccc4c65)OC3=O)cc2N1` [Example 40, (S)-4-{3-[(R)-2-oxo-3-(3-oxo-3,4-dihydro-2H-benzo[1,4]oxazin-6-yl)-oxazolidin-5-yl]-propylamino}-4,5-dihydro-pyrrolo[3,2,1-de][1,5]naphthyridin-7-one] has an MIC of 0.125 µg/mL (≈ 0.271 µM). With `O=C1CSc2ccc(N3C[C@H](CCN[C@@H]4Cn5c(=O)ccc6nccc4c65)OC3=O)cc2N1` [Example 41, (S)-4-{2-[(S)-2-oxo-3-(3-oxo-3,4-dihydro-2H-benzo[1,4]thiazin-6-yl)-oxazolidin-5-yl]-ethylamino}-4,5-dihydro-pyrrolo[3,2,1-de][1,5]naphthyridin-7-one] the MIC was 0.5 µg/mL (≈ 1.08 µM). `O=C1CSc2ccc(N3C[C@@H](CCCN[C@@H]4Cn5c(=O)cnc6cccc4c65)OC3=O)cc2N1` [Example 48, (S)-6-{3-[(R)-2-oxo-3-(3-oxo-3,4-dihydro-2H-benzo[1,4]thiazin-6-yl)-oxazolidin-5-yl]-propylamino}-5,6-dihydro-pyrrolo[1,2,3-de]quinoxalin-3-one] gave an MIC of no more than 0.031 µg/mL. Work on `O=C1CSc2ccc(N3C[C@H](CCNC[C@H]4Cn5c(=O)ccc6ccc(F)c4c65)OC3=O)cc2N1` [Example 49, (S)-9-fluoro-1-({2-[(S)-2-oxo-3-(3-oxo-3,4-dihydro-2H-benzo[1,4]thiazin-6-yl)-oxazolidin-5-yl]-ethylamino}-methyl)-1,2-dihydro-pyrrolo[3,2,1-ij]quinolin-4-one] yielded an MIC of no more than 0.031 µg/mL. For `O=C1CSc2ccc(N3C[C@H](CCNC[C@@H]4Cn5c(=O)ccc6ccc(F)c4c65)OC3=O)cc2N1` [Example 50, (R)-9-fluoro-1-({2-[(S)-2-oxo-3-(3-oxo-3,4-dihydro-2H-benzo[1,4]thiazin-6-yl)-oxazolidin-5-yl]-ethylamino}-methyl)-1,2-dihydro-pyrrolo[3,2,1-ij]quinolin-4-one], the MIC was no more than 0.031 µg/mL. With `O=C1CSc2ccc(N3C[C@@H](CCN[C@@H]4Cn5c(=O)cnc6cccc4c65)OC3=O)cc2N1` [Example 54, (S)-6-{2-[(R)-2-oxo-3-(3-oxo-3,4-dihydro-2H-benzo[1,4]thiazin-6-yl)-oxazolidin-5-yl]-ethylamino}-5,6-dihydro-pyrrolo[1,2,3-de]quinoxalin-3-one] the MIC was 0.25 µg/mL (≈ 0.539 µM). `O=C1CSc2ccc(N3C[C@H](CCN[C@@H]4Cn5c(=O)cnc6cccc4c65)OC3=O)cc2N1` [Example 55, (S)-6-{2-[(S)-2-oxo-3-(3-oxo-3,4-dihydro-2H-benzo[1,4]thiazin-6-yl)-oxazolidin-5-yl]-ethylamino}-5,6-dihydro-pyrrolo[1,2,3-de]quinoxalin-3-one] was tested, and the MIC was no more than 0.031 µg/mL. Molecule `O=C1COc2ccc(N3C[C@@H](CCCN[C@@H]4Cn5c(=O)cnc6ccc(F)c4c65)OC3=O)cc2N1` [Example 57, (S)-7-fluoro-6-{3-[(R)-2-oxo-3-(3-oxo-3,4-dihydro-2H-benzo[1,4]oxazin-6-yl)-oxazolidin-5-yl]-propylamino}-5,6-dihydro-pyrrolo[1,2,3-de]quinoxalin-3-one] has an MIC of no more than 0.031 µg/mL. With `O=C1CSc2ccc(N3C[C@@H](CCCN[C@@H]4Cn5c(=O)cnc6ccc(F)c4c65)OC3=O)cc2N1` [Example 58, (S)-7-fluoro-6-{3-[(R)-2-oxo-3-(3-oxo-3,4-dihydro-2H-benzo[1,4]thiazin-6-yl)-oxazolidin-5-yl]-propylamino}-5,6-dihydro-pyrrolo[1,2,3-de]quinoxalin-3-one] the MIC was no more than 0.031 µg/mL. In the case of `O=C1CSc2ccc(N3C[C@@H](CCCN[C@H]4Cn5c(=O)cnc6cccc4c65)OC3=O)cc2N1` [Example 64, (R)-6-{3-[(R)-2-oxo-3-(3-oxo-3,4-dihydro-2H-benzo[1,4]thiazin-6-yl)-oxazolidin-5-yl]-propylamino}-5,6-dihydro-pyrrolo[1,2,3-de]quinoxalin-3-one], the MIC was no more than 0.031 µg/mL. `O=C1COc2ccc(N3C[C@@H](CCCN[C@H]4Cn5c(=O)cnc6cccc4c65)OC3=O)cc2N1` [Example 65, (R)-6-{3-[(R)-2-oxo-3-(3-oxo-3,4-dihydro-2H-benzo[1,4]oxazin-6-yl)-oxazolidin-5-yl]-propylamino}-5,6-dihydro-pyrrolo[1,2,3-de]quinoxalin-3-one] showed an MIC of no more than 0.031 µg/mL.

Reference: patent US9822114B2, “Tricyclic oxazolidinone antibiotic compounds” (Idorsia Pharmaceuticals Ltd, priority 2008, dated 2017)
